In general, IC50 refers to the midpoint of a concentration-inhibition curve. Read a low IC50 as greater potency.

Molecules are shown by their SMILES.

For one data set, the system named is SW480 cells. In words: BrdU cell proliferation assay in SW480 cells.
For a further data set, the system named is HCT116 cells. Briefly: BrdU cell proliferation assay in HCT116 cells.
Data set [1] concerns HCT-116 human colon carcinoma xenograft. Briefly: In vivo tumor efficacy model, mouse HCT116 human colon carcinoma xenograft. As to the method:
In Vivo Tumor Efficacy Model
HCT-116 (1×10^6) cells in McCoy's 5A medium were aseptically injected into the subcutaneous space in the right dorsal flank of female CD-1 nude mice (age 8 weeks, Charles River) using a 23-ga needle. Tumor volumes were calculated using standard procedures (0.5×(length×width^2)). […]. Doses (0.1 mL) were administered via 22 gauge oral gavage needle. Control animals received vehicle alone. Animals were dosed once daily for 21 days, and there were 10 animals in each group. Tumor size and body weight were measured twice per week. Compounds 1 and iii were well-tolerated at all doses in this study. […]
On the technique in general: Xenograft models place foreign cells or tissue in a host animal.

Another data set addresses T1, Aurora A (Homo sapiens, UniProt O14965).
T1 construct: Human tumor cells (HCT-116, obtained from ATCC) were grown on 96-well dishes; host or cells: HCT-116
T1 sequence (O14965 1-403): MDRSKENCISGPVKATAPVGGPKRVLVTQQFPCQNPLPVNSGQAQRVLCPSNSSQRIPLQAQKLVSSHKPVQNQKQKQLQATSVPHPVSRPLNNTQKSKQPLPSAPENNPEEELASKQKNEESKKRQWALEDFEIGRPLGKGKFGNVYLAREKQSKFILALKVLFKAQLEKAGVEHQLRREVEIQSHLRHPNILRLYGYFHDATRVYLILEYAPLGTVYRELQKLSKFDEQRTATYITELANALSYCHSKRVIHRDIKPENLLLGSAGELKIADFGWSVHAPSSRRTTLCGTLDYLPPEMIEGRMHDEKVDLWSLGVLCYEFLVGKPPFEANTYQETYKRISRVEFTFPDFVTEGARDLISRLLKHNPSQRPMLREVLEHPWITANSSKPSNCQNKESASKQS
Briefly: pT288 Aurora A autophosphorylation assay. Particulars: HCT-116 cells, 60 minutes treatment. It is filed as cell-based.

Setting [2] is: oral, once daily for 21 days, at each dose.

Protocol for Aurora A: pT288 Aurora A Autophosphorylation Assay.
After incubation, the growth medium was replaced with 75 μL of fresh media and 25 μL of test compound was added to the cells in two-fold serial dilutions in dimethyl sulfoxide (DMSO) to achieve final concentrations ranging from 5 to 0.010 μM. Test compound at each dilution was added as replicates in 4 rows on the dish, and DMSO (20 nM) was added to each well of two columns for the untreated controls. The cells were treated with test compound or DMSO for 60 minutes at 37° C. in a humidified cell culture chamber. Cells were then fixed with 4% para-formaldehyde in phosphate-buffered saline (PBS) for 10 minutes, permeated with 0.5% Triton X-100 in PBS for 10 minutes, and washed twice in PBS.
Cells were visualized using a Discovery-1 High Content Imaging System. Images from nine or sixteen sites per well were captured at 200× magnification. Inhibition of Aurora A was determined by measuring pT288 (Aurora A autophosphorylation) fluorescent intensity within MPM2 immunopositive (mitotic) cells using Metamorph software. Concentration response curves were generated by calculating the decrease of pT288 fluorescent intensity in test compound-treated samples relative to the DMSO-treated controls, and growth inhibition (IC50) values were determined from those curves.
Protocol for HCT116 cells: BrdU Cell Proliferation Assay
(§1) Cell proliferation of each cell line was measured using the cell proliferation enzyme-linked immunosorbent assay (ELISA), 5-bromo-2′-deoxyuridine (BrdU) colorimetric kit according to the manufacturer's recommendations. The assay measures cell proliferation by quantifying BrdU incorporation into replicating deoxyribonucleic acid (DNA). Briefly, each well was incubated with 10 μL of BrdU labeling reagent for 2 hours at 37° C. in a humidified cell culture chamber. After aspiration of the labeling media, the cells were fixed and denatured by adding 200 μL of ethanol to each well and incubated for 30 minutes at room temperature.
(§2) Concentration response curves were generated by calculating the decrease in optical density in samples treated with test compound relative to the DMSO-treated controls.
Protocol for SW480 cells: BrdU Cell Proliferation Assay
as §1, §2

In the case of `O=C(O)c1ccc(Nc2ncc3c(n2)-c2ccc(Cl)cc2C(c2ccccc2F)=NC3)cc1` [i], the “BrdU SW480 LD50” value in the data set on SW480 cells came to 6.502 µM. The “BrdU HCT116 LD50” value in the data set on HCT116 cells came out at 0.707 µM.

In the case of `COc1cc(Nc2ncc3c(n2)-c2ccc(Cl)cc2C(c2c(F)cccc2OC)=NC3)ccc1C(=O)O` [Compound 1, 4-{[9-chloro-7-(2-fluoro-6-methoxyphenyl)-5H-pyrimido[5,4-d][2]benzazepin-2-yl]amino}-2-methoxybenzoic acid], in the data set with SW480 cells, the “BrdU SW480 LD50” value came out at 0.41 µM. Further, in data set [1] (mouse HCT116 human colon carcinoma xenograft model), the “in vivo potency compared with compound iii” value was “more potent than compound iii”. In data set [1] (mouse, in vivo, po), the tolerability result is “well-tolerated”. Moreover, in data set [1] (setting [2]), the “tumor growth delay (TGD) compared with compound iii” value is “longer tumor growth delay” and the “tumor growth inhibition (TGI) compared with compound iii” value is “greater tumor growth inhibition”. In addition, the “BrdU HCT116 LD50” value with HCT116 cells was 0.03 µM.

`COc1cccc(F)c1C1=NCc2cnc(Nc3ccc(C(=O)O)cc3)nc2-c2ccc(Cl)cc21` [iii]: at Aurora A, the IC50 stood at 18 nM. Also, in the data set with SW480 cells, the “BrdU SW480 LD50” value was 0.94 µM. The tolerability entry in data set [1] (oral, once daily for 21 days, all doses, female CD-1 nude mice) is given as “well-tolerated”. In addition, the “BrdU HCT116 LD50” value with HCT116 cells turned out to be 0.13 µM.

As to `COc1cc(Nc2ncc3c(n2)-c2ccc(Cl)cc2C(c2ccccc2F)=NC3)ccc1C(=O)O` [ii], inhibition on Aurora A was half-maximal at 150 nM (IC50). In the data set with SW480 cells, the “BrdU SW480 LD50” value was 7.579 µM. For the same compound, the “BrdU HCT116 LD50” value with HCT116 cells came out at 0.758 µM.

For the origin of these results see US11958855B2, “Aurora kinase inhibitors for inhibiting mitotic progression” (Millennium Pharmaceuticals, Inc., priority 2006, dated 2024).
